Reference: ChEMBL document CHEMBL3860032, “Identification of noncovalent proteasome inhibitors with high selectivity for chymotrypsin-like activity by a multistep structure-based virtual screening” (Eur J Med Chem, 2016)
Active and inactive are the calls of the source. The rule behind the calls is not given here. Non-standard residues stand in square brackets, D forms with d. Residues, ends and D or L forms follow the SMILES beside them. ξ: configuration not given here. *: point of attachment. ξY = NC(Cc1ccc(O)cc1)C(=O)O; Nva = CCC[CH](N)C(=O)O; Cbz = O=C(OCc1ccccc1)*; ξI = CCC(C)C(N)C(=O)O; ξL = CC(C)CC(N)C(=O)O; ξT = CC(O)C(N)C(=O)O; NHNH2 = NN*

Legend:
MM1R [1] = assay: Inhibition of proteasome activity in human MM1R cells assessed as increase in total ubiquitin levels at 20 uM after 24 hrs by Western blot method; assay type: cell-based
[2] = target: T1, Proteasome Macropain subunit MB1 (Homo sapiens, UniProt P28074); assay: Competitive inhibition of chymotrypsin-like activity of human 20S proteasome using Suc-Leu-Leu-Val-Tyr-AMC as substrate measured for 10 mins by fluorescence assay
T1 sequence (P28074 whole entry): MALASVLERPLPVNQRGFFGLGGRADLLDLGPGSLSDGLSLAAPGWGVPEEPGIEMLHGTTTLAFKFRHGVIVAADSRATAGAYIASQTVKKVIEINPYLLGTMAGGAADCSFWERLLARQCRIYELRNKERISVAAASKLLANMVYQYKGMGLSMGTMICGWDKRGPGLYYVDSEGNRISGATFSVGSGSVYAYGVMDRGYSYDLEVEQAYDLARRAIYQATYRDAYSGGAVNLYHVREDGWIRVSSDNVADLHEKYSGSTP

[3] = Cytotoxicity against human MM1R cells assessed as growth inhibition after 24 hrs by MTT assay; assay type: functional, cell-based; conditions: MM.1R
[4] = Cytotoxicity against human MM1R cells assessed as residual vitality at 100 uM after 24 hrs by MTT assay relative to control; assay type: functional
[5] = target: T2, Proteasome Macropain subunit MB1 (Homo sapiens) (UniProt P28074); assay: Inhibition of chymotrypsin-like activity of human 20S proteasome at 50 uM using Suc-Leu-Leu-Val-Tyr-AMC as substrate measured for 10 mins by fluorescence assay relative to control
T2 sequence (whole entry): T1 sequence (P28074 whole entry)

[6] = target: Proteasome Macropain subunit (Homo sapiens) (UniProt P49721); assay: Inhibition of trypsin-like activity of human 20S proteasome at 50 uM using Boc-Leu-Arg-Arg-AMC as substrate measured for 10 mins by fluorescence assay relative to control
[7] = target: T3, Proteasome component C5 (Homo sapiens) (UniProt P20618); assay: Inhibition of post-glutamyl peptide hydrolyzing activity of human 20S proteasome at 50 uM using Cbz-Leu-Leu-Glu-AMC as substrate measured for 10 mins by fluorescence assay relative to control
T3 sequence (whole entry): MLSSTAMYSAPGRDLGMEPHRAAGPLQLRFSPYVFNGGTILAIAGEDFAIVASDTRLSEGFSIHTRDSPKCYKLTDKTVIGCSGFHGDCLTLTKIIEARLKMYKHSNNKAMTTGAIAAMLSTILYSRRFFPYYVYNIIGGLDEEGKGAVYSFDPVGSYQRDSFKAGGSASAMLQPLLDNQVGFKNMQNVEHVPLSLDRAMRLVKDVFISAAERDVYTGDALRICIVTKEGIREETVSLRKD

[8] = target: T2, Proteasome Macropain subunit MB1 (Homo sapiens); assay: Time-dependent inhibition of chymotrypsin-like activity of human 20S proteasome using Suc-Leu-Leu-Val-Tyr-AMC as substrate at 10 to 100 uM by fluorescence assay
MM1R [9] = assay: Inhibition of proteasome activity in human MM1R cells assessed as increase in total ubiquitin levels at 10 uM after 24 hrs by Western blot method; assay type: cell-based

Chain of Proteasome Macropain subunit (Homo sapiens) (P49721 whole entry): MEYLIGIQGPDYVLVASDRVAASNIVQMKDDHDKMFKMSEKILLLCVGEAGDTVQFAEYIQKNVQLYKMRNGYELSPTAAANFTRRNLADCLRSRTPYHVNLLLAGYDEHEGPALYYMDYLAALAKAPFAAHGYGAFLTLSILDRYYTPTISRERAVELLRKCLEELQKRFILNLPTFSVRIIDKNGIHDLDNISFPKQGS

Row | Compound | inhibition [5] | inhibition [6] | also measured
1 | CN/C(=N\CCSCc1ccc2ccccc2n1)NS(=O)(=O)c1ccccc1 | – | – | increase in total ubiquitin levels (qualitative) (MM1R [1]): Active; Ki [2]: 2.12 µM; IC50 [3]: 18.3 µM; Activity [4]: 4%
2 | CC(=O)NC(Cc1ccccc1)C(=O)Nc1ccc(C)cc1 (centres undefined) | 43% | – | –
3 | CC(=O)NC(Cc1ccccc1)C(=O)Nc1ccc(S(N)(=O)=O)cc1 (centres undefined) | 34% | – | –
4 | CC(C)(C)OC(=O)Cn1ncn(NC(=O)Cc2ccccc2)c1=O | 49% | – | –
5 | CC(C)(C)Oc1ccc(C[C@@H](NC(=O)OCC2c3ccccc3-c3ccccc32)C(=O)O)cc1 | 59% | – | –
6 | CC(C)C[C@H](NC(=O)c1cnc2ccccc2n1)C(=O)O | 34% | – | –
7 | CC(C)[C@H](NC(=O)[C@H](Cc1ccc(O)cc1)NC(=O)OCc1ccccc1)C(=O)O | 21% | – | –
8 | CC(Cc1ccccc1)NC(=O)C(O)C(O)C(O)C(O)CCO (centres undefined) | 36% | 6% | –
9 | CC(NC(=O)OCc1ccccc1)C(=O)NC(Cc1ccc(O)cc1)C(=O)OCc1ccccc1 (centres undefined) | 22% | – | –
10 | CCOC(=O)C(NC(=O)Cc1ccccc1)C(=O)OCC | 49% | – | –
11 | CCOC(=O)c1ccc(NC(=O)CSc2nc3ccccc3o2)cc1 | 13% | – | –
12 | CNC(Cc1ccc(OCc2ccccc2)cc1)C(=O)NC(CO)CC(C)C (centres undefined) | 33% | – | –
13 | COC(=O)C(CC(C)C)NC(=O)C(Cc1ccc(O)cc1)N(C(=O)OCc1ccccc1)C(=O)OCc1ccccc1 (centres undefined) | 46% | – | –
14 | C[C@H](NC(=O)OCc1ccccc1)C(=O)N[C@@H](Cc1ccccc1)C(N)=O | 24% | – | –
15 | NC(=O)C(NC(=O)c1ccccc1)SCc1ccccc1 (centres undefined) | 21% | 3% | –
16 | NC(=O)C[C@H](NC(=O)OCC1c2ccccc2-c2ccccc21)C(=O)O | 33% | – | –
17 | NC(CCC(=O)OCc1ccccc1)C(=O)OCc1ccccc1 (centres undefined) | 34% | – | –
18 | NC(Cc1c[nH]c2ccccc12)C(=O)OCc1ccccc1 (centres undefined) | 54% | – | –
19 | NS(=O)(=O)c1ccc(NC(=O)/C=C/c2ccccc2)cc1 | 33% | 11% | –
20 | O=C(CC(=O)c1cccnc1)NC(=O)c1ccccc1 | 43% | – | –
21 | O=C(CNC(=O)c1ccccc1)OC(C(=O)O)c1ccc(F)cc1 (centres undefined) | 12% | – | –
22 | O=C(NCc1ccccc1)C(O)C(O)C(O)C(O)CO (centres undefined) | 15% | 2% | –
23 | O=C(Nc1ccc2nc(O)cc(C(=O)O)c2c1)Oc1ccccc1 | 48% | 74% | –

Row | Compound | inhibition [5] | inhibition [6] | also measured
24 | O=C(Nc1ccccc1C(=O)NCC1CC1)c1cccs1 | 60% | – | –
25 | O=C(O)CCCC(=O)NC1CC2c3ccccc3C1c1ccccc12 (centres undefined) | 31% | 7% | –
26 | O=C(O)[C@H](Cc1ccc(O)cc1)NS(=O)(=O)Cc1ccccc1 | 60% | – | –
27 | O=C(O)c1ccc(NCn2c(=S)[nH]c3ccccc32)cc1O | 54% | 1% | –
28 | OCC(Oc1ccccc1)C(O)C(O)C(CO)Oc1ccccc1 (centres undefined) | 5% | – | –
29 | COC(=O)[C@H](C)NC(=O)[C@H](Cc1ccccc1)NC(=O)[C@H](C)NC(=O)OCc1ccccc1 (Cbz-Ala-Phe-Ala-OMe) | 24% | – | inhibition [7]: 24%
30 | CC(O)C(C=O)NC(=O)CNC(=O)OCc1ccccc1 (stereo not drawn) (Cbz-Gly-[ξT]-aldehyde) | 23% | – | –
31 | COC(=O)[C@H](CO)NC(=O)[C@H](CC(C)C)NC(=O)[C@H](CC(C)C)NC(=O)OCc1ccccc1 (Cbz-Leu-Leu-Ser-OMe) | – | – | increase in total ubiquitin levels (qualitative) (MM1R [1]): Active; TDI [8]: Active; Ki [2]: 0.42 µM; IC50 [3]: 16.2 µM; Activity [4]: 4%
32 | CC(C)C[C@H](NC(=O)OCc1ccccc1)C(=O)N[C@@H](Cc1ccc(O)cc1)C(N)=O (Cbz-Leu-Tyr-NH2) | 17% | – | –
33 | COC(=O)[C@H](C)NC(=O)[C@H](CC(C)C)NC(=O)[C@H](Cc1ccccc1)NC(=O)OCc1ccccc1 (Cbz-Phe-Leu-Ala-OMe) | 22% | – | –
34 | COC(=O)[C@H](Cc1ccccc1)NC(=O)[C@H](Cc1ccccc1)NC(=O)[C@H](Cc1ccccc1)NC(=O)OCc1ccccc1 (Cbz-Phe-Phe-Phe-OMe) | – | 18% | –
35 | CC(C)CC(NC(=O)C(CO)NC(=O)OCc1ccccc1)C(=O)NC(Cc1ccc(O)cc1)C(N)=O (stereo not drawn) (Cbz-Ser-Leu-Tyr-NH2; configuration not given here) | – | 29% | increase in total ubiquitin levels (qualitative) (MM1R [1]): Active; Ki [2]: 2.18 µM; IC50 [3]: 28.5 µM; Activity [4]: 4%
36 | CC(C)C[C@H](NC(=O)[C@H](CO)NC(=O)OCc1ccccc1)C(=O)N[C@@H](Cc1ccc(O)cc1)C(=O)NN (Cbz-Ser-Leu-Tyr-NHNH2) | – | 26% | TDI [8]: Active; Ki [2]: 11 µM; inhibition [7]: 23%; IC50 [3]: 29.8 µM; Activity [4]: 4%
37 | COC(=O)[C@H](Cc1ccc(O)cc1)NC(=O)[C@H](CC(C)C)NC(=O)[C@H](CO)NC(=O)OCc1ccccc1 (Cbz-Ser-Leu-Tyr-OMe) | – | 22% | increase in total ubiquitin levels (qualitative) (MM1R [1]): Active; TDI [8]: Active; Ki [2]: 4.7 µM; IC50 [3]: 22.3 µM; Activity [4]: 4%
38 | COC(=O)[C@H](CC(C)C)NC(=O)[C@H](Cc1ccccc1)NC(=O)[C@H](CO)NC(=O)OCc1ccccc1 (Cbz-Ser-Phe-Leu-OMe) | – | – | increase in total ubiquitin levels (qualitative) (MM1R [1]): Active; TDI [8]: Active; Ki [2]: 10.3 µM; IC50 [3]: 17.6 µM; Activity [4]: 4%
39 | CC(C)[C@H](NC(=O)[C@H](Cc1ccc(O)cc1)NC(=O)OCc1ccccc1)C(N)=O (Cbz-Tyr-Val-NH2) | 11% | 23% | –
40 | COC(=O)[C@H](CC(C)C)NC(=O)[C@H](CC(N)=O)NC(=O)[C@@H](NC(=O)OCc1ccccc1)C(C)C (Cbz-Val-Asn-Leu-OMe) | 15% | 32% | –
41 | CCC[C@H](NC(=O)OCc1ccccc1)C(=O)N[C@@H](Cc1ccc(O)cc1)C(N)=O (Cbz-[Nva]-Tyr-NH2) | 18% | 33% | –
42 | CCCC(NC(=O)OCc1ccccc1)C(=O)NC(Cc1ccc(O)cc1)C(N)=O (centres undefined) (Cbz-[Nva]-Tyr-NH2; configuration not given here) | 17% | – | –
43 | CCC(C)C(NC(=O)OCc1ccccc1)C(=O)N[C@@H](Cc1ccc(O)cc1)C(=O)O (some centres undefined) (Cbz-[ξI]-Tyr-OH) | 34% | 11% | –
44 | CC(C)CC(NC(=O)OCc1ccccc1)C(=O)N[C@@H](Cc1ccc(O)cc1)C(=O)O (some centres undefined) (Cbz-[ξL]-Tyr-OH) | 8% | – | –
45 | O=C(NC(Cc1ccc(O)cc1)C(=O)N[C@@H](Cc1ccccc1)C(=O)O)OCc1ccccc1 (some centres undefined) (Cbz-[ξY]-Phe-OH) | 7% | – | –
46 | CC(C)C[C@@H](C=O)NC(=O)[C@H](CC(C)C)NC(=O)[C@H](CC(C)C)NC(=O)OCc1ccccc1 [MG-132] (Cbz-Leu-Leu-Leu-aldehyde) | – | – | IC50 [3]: 12.3 µM; inhibition (MM1R [9]): Active
